Holding throughout (format): cell-based
For one assay, the system named is PC3 cells. Put plainly: CCK-8 antiproliferation assay, PC3. The following applies: Homo sapiens, PC-3; 20 μM, 48 h, CCK-8, mean ± SD; read-out: Inhibition Rate (%) at 20 μM, PC3. As for the experimental part: (§1) Human lung carcinoma cell lines A549, human cervical cancer cell lines HeLa, human prostate cancer cell lines PC3, human colorectal carcinoma cell lines HCT116, and human liver cells L02 were purchased from the Chinese Academy of Sciences Shanghai Cell Bank (Shanghai, China). HeLa, A549, PC3, HCT116, and L02 cells were cultured in DMEM Dulbecco’s Modified Eagle Medium (DMEM; Gibco Inc., Gaithersburg, MD, USA). All cultures were provided with 10% fetal bovine serum (FBS; YHSM, Beijing, China), 100 IU/mL penicillin, and 100 μg/mL streptomycin, and cells were incubated at 37 °C in an atmosphere of 5% CO2.
(§2) Cell viability was determined using a CCK-8 kit (Apexbio, Houston, TX, USA). […] Subsequently, absorbance was assessed at 450 nm. Three duplicates were set in each group.
(§3) All synthesized quinoxalines compounds were tested for in vitro cytotoxicity against four cancer cell lines (HeLa, PC3, A549, and HCT116). The inhibitory effects of these compounds were evaluated using the CCK-8 assay after treatment with 20 μM of each compound. […] The species of phenyl substituents have a significant effect on the activity. […] By comparison, hydrophobic substitution at the phenyl ring gave derivatives with relatively low potency (QW7–8). In addition, large substituents on the phenyl ring exerted an unfavorable influence on the potency of the compounds (QW8 and QW16).

The test system of a further assay is A549 cells. The assay can be described thus: CCK-8 antiproliferation assay, A549. The note with it: Homo sapiens, 20 μM, 48 h, CCK-8, mean ± SD, read-out: Inhibition Rate (%) at 20 μM, A549. As for the experimental part: as §1, §2, §3
Another assay has as its system HeLa cells. Put plainly: CCK-8 antiproliferation assay, HeLa. The following applies: Homo sapiens; 20 μM, 48 h, CCK-8, mean ± SD; read-out: Inhibition Rate (%) at 20 μM, HeLa. As for the experimental part: as §1, §2, §3
For the next assay, the system named is HCT116 cells. Put plainly: CCK-8 antiproliferation assay, HCT116. The following applies: Homo sapiens, HCT-116; 20 μM, 48 h, CCK-8, mean ± SD; read-out: Inhibition Rate (%) at 20 μM, HCT116. As for the experimental part:
as §1, §2, §3

The structures appear in SMILES notation.

For `COc1cc(-c2ccc(/C=N/NC(=O)c3ccc(F)cc3)o2)c(OC)cc1-c1cnc2ccccc2n1` [QW1, (E)-N’-((5-(2,5-dimethoxy-4-(quinoxalin-2-yl)phenyl)furan-2-yl)methylene)-4-fluorobenzohydrazide], the inhibition at 20 µM in the assay on PC3 cells was determined as 5.13 ± 0.59%; in the assay on A549 cells, 7.47 ± 0.52%; in the assay with HeLa cells, 5.14 ± 0.13%; in the assay on HCT116 cells it was 15.33 ± 0.14%.
Regarding `COc1cc(-c2ccc(/C=N/NC(=O)c3ccccc3)o2)c(OC)cc1-c1cnc2ccccc2n1` [QW2, (E)-N’-((5-(2,5-dimethoxy-4-(quinoxalin-2-yl)phenyl)furan-2-yl)methylene)benzohydrazide], the inhibition at 20 µM worked out at 1.76 ± 0.23% in the assay with PC3 cells, 6.46 ± 0.43% in the assay with A549 cells, 8.64 ± 0.26% in the assay with HeLa cells and 17.8 ± 0.67% in the assay on HCT116 cells.
The corresponding values for `COc1cc(-c2ccc(/C=N/NC(=O)c3cccnc3)o2)c(OC)cc1-c1cnc2ccccc2n1` [QW3, (E)-N’-((5-(2,5-dimethoxy-4-(quinoxalin-2-yl)phenyl)furan-2-yl)methylene)nicotinohydrazide] are 32.6 ± 0.65%, 11.63 ± 0.03%, 38.81 ± 0.3% and 33.8 ± 0.41%.
In the case of `COc1cc(-c2ccc(/C=N/NC(=O)c3ccc(O)cc3)o2)c(OC)cc1-c1cnc2ccccc2n1` [QW4, (E)-N’-((5-(2,5-dimethoxy-4-(quinoxalin-2-yl)phenyl)furan-2-yl)methylene)-4-hydroxybenzohydrazide], the inhibition at 20 µM in the assay with PC3 cells was determined as 38.74 ± 0.2%; in the assay on A549 cells it was 25.5 ± 0.62%; with HeLa cells, 44.29 ± 0.05%; in the assay on HCT116 cells, 30.7 ± 0.04%.
The corresponding values for `COc1cc(-c2ccc(/C=N/NC(=O)c3ccncc3)o2)c(OC)cc1-c1cnc2ccccc2n1` [QW5, (E)-N’-((5-(2,5-dimethoxy-4-(quinoxalin-2-yl)phenyl)furan-2-yl)methylene)isonicotinohydrazide] are 26 ± 0.37%, 18.52 ± 0.18%, 31.13 ± 0.23% and 30.6 ± 0.51%.
As for `COc1cc(-c2ccc(/C=N/NC(=O)c3ccccn3)o2)c(OC)cc1-c1cnc2ccccc2n1` [QW6, (E)-N’-((5-(2,5-dimethoxy-4-(quinoxalin-2-yl)phenyl)furan-2-yl)methylene)picolinohydrazide], the inhibition at 20 µM is 0.1 ± 0.13% with PC3 cells, 1.66 ± 0.61% with A549 cells, 0.53 ± 0.12% in the assay with HeLa cells and 16.5 ± 0.25% in the assay on HCT116 cells.
Taken in the same sequence, the figures for `COc1cc(-c2ccc(/C=N/NC(=O)c3cccc(C)c3)o2)c(OC)cc1-c1cnc2ccccc2n1` [QW7, (E)-N’-((5-(2,5-dimethoxy-4-(quinoxalin-2-yl)phenyl)furan-2-yl)methylene)-3-methylbenzohydrazide] were 4.73 ± 0.01%, 4.31 ± 0.08%, 8.46 ± 0.42% and 2.18 ± 0.38%.
Turning to `COc1cc(-c2ccc(/C=N/NC(=O)c3ccc(-c4ccccc4)cc3)o2)c(OC)cc1-c1cnc2ccccc2n1` [QW8, (E)-N’-((5-(2,5-dimethoxy-4-(quinoxalin-2-yl)phenyl)furan-2-yl)methylene)-[1,1’-biphenyl]-4-carbohydrazide], the inhibition at 20 µM worked out at 11.8 ± 0.56% with PC3 cells, 5.8 ± 0.02% in the assay with A549 cells, 3.46 ± 0.17% in the assay with HeLa cells and 20.92 ± 0.05% in the assay on HCT116 cells.
The corresponding values for `COc1cc(-c2ccc(/C=N/NC(=O)c3ccc(F)cc3)o2)c(OC)cc1-c1ccc2nccnc2c1` [QW9, (E)-N’-((5-(2,5-dimethoxy-4-(quinoxalin-6-yl)phenyl)furan-2-yl)methylene)-4-fluorobenzohydrazide] are 3.98 ± 0.49%, 1.16 ± 0.63%, 17.1 ± 0.41% and 29.9 ± 0.57%.
For `COc1cc(-c2ccc(/C=N/NC(=O)c3ccccc3)o2)c(OC)cc1-c1ccc2nccnc2c1` [QW10, (E)-N’-((5-(2,5-dimethoxy-4-(quinoxalin-6-yl)phenyl)furan-2-yl)methylene)benzohydrazide], the inhibition at 20 µM in the assay on PC3 cells was found to be 8.09 ± 0.13%; in the assay on A549 cells, 8.82 ± 0.08%; in the assay with HeLa cells it was 4.3 ± 0.45%; in the assay on HCT116 cells, 10.9 ± 0.46%.
The corresponding values for `COc1cc(-c2ccc(/C=N/NC(=O)c3cccnc3)o2)c(OC)cc1-c1ccc2nccnc2c1` [QW11, (E)-N’-((5-(2,5-dimethoxy-4-(quinoxalin-6-yl)phenyl)furan-2-yl)methylene)nicotinohydrazide] are 29.35 ± 0.18%, 17.27 ± 0.03%, 45.5 ± 0.61% and 39.9 ± 0.68%.
As to `COc1cc(-c2ccc(/C=N/NC(=O)c3ccncc3)o2)c(OC)cc1-c1ccc2nccnc2c1` [QW13, (E)-N’-((5-(2,5-dimethoxy-4-(quinoxalin-6-yl)phenyl)furan-2-yl)methylene)isonicotinohydrazide], the inhibition at 20 µM amounted to 18.5 ± 0.3% with PC3 cells, 3.96 ± 0.59% with A549 cells, 37.71 ± 0.12% in the assay with HeLa cells and 23.2 ± 0.27% in the assay with HCT116 cells.
With `COc1cc(-c2ccc(/C=N/NC(=O)c3ccccn3)o2)c(OC)cc1-c1ccc2nccnc2c1` [QW14, (E)-N’-((5-(2,5-dimethoxy-4-(quinoxalin-6-yl)phenyl)furan-2-yl)methylene)picolinohydrazide], the inhibition at 20 µM in the assay on PC3 cells was 12.9 ± 0.31%; with A549 cells, 5.46 ± 0.7%; in the assay with HeLa cells, 8.67 ± 0.24%; in the assay with HCT116 cells, 30.5 ± 0.55%.
`COc1cc(-c2ccc(/C=N/NC(=O)c3cccc(C)c3)o2)c(OC)cc1-c1ccc2nccnc2c1` [QW15, (E)-N’-((5-(2,5-dimethoxy-4-(quinoxalin-6-yl)phenyl)furan-2-yl)methylene)-3-methylbenzohydrazide]: the inhibition at 20 µM was found to be 13.77 ± 0.12% with PC3 cells, 9.44 ± 0.39% in the assay with A549 cells, 14.26 ± 0.12% with HeLa cells and 18.8 ± 0.54% with HCT116 cells.
Taken in the same sequence, the figures for `COc1cc(-c2ccc(/C=N/NC(=O)c3ccc(-c4ccccc4)cc3)o2)c(OC)cc1-c1ccc2nccnc2c1` [QW16, (E)-N’-((5-(2,5-dimethoxy-4-(quinoxalin-6-yl)phenyl)furan-2-yl)methylene)-[1,1’-biphenyl]-4-carbohydrazide] were 9.37 ± 0.09%, 4.12 ± 0.33%, 10.93 ± 0.04% and 41.48 ± 0.05%.
In the case of `COc1cc(-c2cc(OC)c3ccccc3c2OC)c(OC)cc1-c1ccc(/C=N/NC(=O)c2ccc(F)cc2)o1` [QW17, (E)-N’-((5-(4-(1,4-dimethoxynaphthalen-2-yl)-2,5-dimethoxyphenyl)furan-2-yl)methylene)-4-fluorobenzohydrazide], the inhibition at 20 µM in the assay with PC3 cells was found to be 11.7 ± 0.66%; with A549 cells, 0.44 ± 0.16%; in the assay on HeLa cells it was 6.49 ± 0.17%; with HCT116 cells it was 4.69 ± 0.5%.
Taken in the same sequence, the figures for `COc1cc(-c2cc(OC)c3ccccc3c2OC)c(OC)cc1-c1ccc(/C=N/NC(=O)c2ccccc2)o1` [QW18, (E)-N’-((5-(4-(1,4-dimethoxynaphthalen-2-yl)-2,5-dimethoxyphenyl)furan-2-yl)methylene)benzohydrazide] were 8.09 ± 0.13%, 8.82 ± 0.08%, 4.3 ± 0.45% and 10.9 ± 0.46%.
With `COc1cc(-c2cc(OC)c3ccccc3c2OC)c(OC)cc1-c1ccc(/C=N/NC(=O)c2cccnc2)o1` [QW19, (E)-N’-((5-(4-(1,4-dimethoxynaphthalen-2-yl)-2,5-dimethoxyphenyl)furan-2-yl)methylene)nicotinohydrazide], the inhibition at 20 µM with PC3 cells was 8.37 ± 0.21%; with A549 cells, 0.15 ± 0.35%; in the assay on HeLa cells it was 9.56 ± 0.65%; with HCT116 cells, 4.61 ± 0.66%.
As for `COc1cc(-c2cc(OC)c3ccccc3c2OC)c(OC)cc1-c1ccc(/C=N/NC(=O)c2ccc(O)cc2)o1` [QW20, (E)-N’-((5-(4-(1,4-dimethoxynaphthalen-2-yl)-2,5-dimethoxyphenyl)furan-2-yl)methylene)-4-hydroxybenzohydrazide], the inhibition at 20 µM in the assay on PC3 cells was found to be 15.6 ± 0.19%; in the assay on A549 cells it was 18.73 ± 0.1%; in the assay on HeLa cells, 22.5 ± 0.25%; with HCT116 cells it was 48.5 ± 0.01%.
Taken in the same sequence, the figures for `COc1cc(-c2cc(OC)c3ccccc3c2OC)c(OC)cc1-c1ccc(/C=N/NC(=O)c2ccncc2)o1` [QW21, (E)-N’-((5-(4-(1,4-dimethoxynaphthalen-2-yl)-2,5-dimethoxyphenyl)furan-2-yl)methylene)isonicotinohydrazide] were 0.12 ± 0.2%, 0.68 ± 0.36%, 0.36 ± 0.6% and 4.46 ± 0.24%.
